Columns and labels:
Assay in all cases: Oncotest CellTiter-Blue cell viability assay, 72 hours
Format in all cases: cell-based, human
PRXF PC-3 = details: PRXF PC-3
Description: (§1) Further studies with varying drug concentrations on selected human cell lines, in most cases those studied in the NCI60 screen, were conducted by Oncotest GmbH laboratories, Freiburg, Germany; Oncotest is a division of Charles River Laboratories. The dissolution procedure for PBZ and the cell culture […] was 72 hours; anti-tumor activity was determined with the CellTiter-Blue® Cell Viability Assay, Promega, Mannheim, Germany. The 50% Inhibitory (IC50) concentrations were determined. The results are the average of duplicate assays. Paclitaxel was included as a reference compound to confirm the integrity of the assays. See S1 Appendix for further details.
(§2) “Cell lines were routinely passaged once or twice weekly and maintained in culture for up to 20 passages. Cells were grown at 37°C in a humidified atmosphere with 5% CO2 in RPMI 1640 medium (25 mM HEPES, with L-glutamine, #FG1385, Biochrom, Berlin, Germany) supplemented with 10% (v/v) fetal calf serum (Sigma, Taufkirchen, Germany) and 0.1 mg/mL gentamicin (Life Technologies, Karlsruhe, Germany).”

OVXF OVCAR-8 = system: OVXF OVCAR-8
Description: as §1, §2

MAXF T47D = system: MAXF T47D
Description: as §1, §2

[1] = OVXF OVCAR-8, 1% FCS, study P495C
[2] = OVXF OVCAR-8, 10% FCS, study P495A
[3] = OVXF OVCAR-8, 10% FCS, study P495B

Q: Which “Test/Control (%) at Drug Concentration [uM] 1,0E+02” value (shortened to “Test/Control (%) … [uM] 1,0E+02”) (PRXF PC-3; 1% FCS, study P495C) does the source give for `CC(COc1ccccc1)N(CCCl)Cc1ccccc1` (centres unmarked) [PBZ, phenoxybenzamine] here?
A: The value was 22%.

Q: And the “Test/Control (%) at Drug Concentration [uM] 3,2E+00” value (shortened to “Test/Control (%) … [uM] 3,2E+00”) (PRXF PC-3; 1% FCS, study P495C)?
A: Its value is 105%.

Q: And the “Test/Control (%) at Drug Concentration [uM] 3,2E+01” value (shortened to “Test/Control (%) … [uM] 3,2E+01”) (PRXF PC-3; 1% FCS, study P495C)?
A: The value was 58%.

Q: And the “Test/Control (%) at Drug Concentration [uM] 1,0E+00” value (shortened to “Test/Control (%) … [uM] 1,0E+00”) (PRXF PC-3; 10% FCS, study P495A)?
A: Its value is 86%.

Q: And the “Test/Control (%) at Drug Concentration [uM] 1,0E+01” value (“Test/Control (%) … [uM] 1,0E+01” below) (PRXF PC-3; 10% FCS, study P495A)?
A: The value was 86%.

Q: What about the “Test/Control (%) … [uM] 1,0E+02” value (PRXF PC-3; 10% FCS, study P495A) of the same compound?
A: The value was 52%.

Q: And the “Test/Control (%) at Drug Concentration [uM] 1,0E-01” value (from here on “Test/Control (%) … [uM] 1,0E-01”) (PRXF PC-3; 10% FCS, study P495A)?
A: Its value is 87%.

Q: And the “Test/Control (%) at Drug Concentration [uM] 1,0E-02” value (“Test/Control (%) … [uM] 1,0E-02” for short) (PRXF PC-3; 10% FCS, study P495A)?
A: Its value is 83%.

Q: What about the “Test/Control (%) … [uM] 3,2E+00” value (PRXF PC-3; 10% FCS, study P495A) of the same compound?
A: Its value is 89%.

Q: What about the “Test/Control (%) … [uM] 3,2E+01” value (PRXF PC-3; 10% FCS, study P495A) of the same compound?
A: Its value is 82%.

Q: And the “Test/Control (%) at Drug Concentration [uM] 3,2E-01” value (“Test/Control (%) … [uM] 3,2E-01” for short) (PRXF PC-3; 10% FCS, study P495A)?
A: The value was 91%.

Q: And the “Test/Control (%) at Drug Concentration [uM] 3,2E-02” value (“Test/Control (%) … [uM] 3,2E-02” below) (PRXF PC-3; 10% FCS, study P495A)?
A: The value was 87%.

Q: What about the “Test/Control (%) at Drug Concentration [uM] 3,2E-03” value (shortened to “Test/Control (%) … [uM] 3,2E-03”) (PRXF PC-3; 10% FCS, study P495A) of the same compound?
A: Its value is 91%.

Q: What about the “Test/Control (%) … [uM] 1,0E+00” value (PRXF PC-3; 10% FCS, study P495B) of the same compound?
A: Its value is 89%.

Q: And the “Test/Control (%) … [uM] 1,0E+01” value (PRXF PC-3; 10% FCS, study P495B)?
A: The value was 77%.

Q: And the “Test/Control (%) … [uM] 1,0E+02” value (PRXF PC-3; 10% FCS, study P495B)?
A: Its value is 49%.

Q: What about the “Test/Control (%) … [uM] 1,0E-01” value (PRXF PC-3; 10% FCS, study P495B) of the same compound?
A: Its value is 84%.

Q: What about the “Test/Control (%) … [uM] 1,0E-02” value (PRXF PC-3; 10% FCS, study P495B) of the same compound?
A: Its value is 88%.

Q: And the “Test/Control (%) at Drug Concentration [uM] 1,0E-03” value (“Test/Control (%) … [uM] 1,0E-03” for short) (PRXF PC-3; 10% FCS, study P495B)?
A: The value was 81%.

Q: What about the “Test/Control (%) … [uM] 3,2E+00” value (PRXF PC-3; 10% FCS, study P495B) of the same compound?
A: The value was 92%.

Q: What about the “Test/Control (%) … [uM] 3,2E+01” value (PRXF PC-3; 10% FCS, study P495B) of the same compound?
A: Its value is 74%.

Q: And the “Percent cell growth in Oncotest screen with 10% FCS (72 hr incubation)” value (OVXF OVCAR-8; 10 μM phenoxybenzamine, OVCAR-8)?
A: Its value is 90%.

Q: What about the IC50 (OVXF OVCAR-8; Homo sapiens, OVXF OVCAR-8 Ovarian, 1% FCS) of the same compound?
A: The IC50 was 31.9 µM.

Q: And the “Test/Control (%) … [uM] 1,0E+00” value (OVXF OVCAR-8; [1])?
A: The value was 102%.

Q: What about the “Test/Control (%) … [uM] 1,0E+01” value (OVXF OVCAR-8; [1]) of the same compound?
A: The value was 100%.

Q: And the “Test/Control (%) … [uM] 1,0E+02” value (OVXF OVCAR-8; [1])?
A: The value was 22%.

Q: And the “Test/Control (%) … [uM] 3,2E+00” value (OVXF OVCAR-8; [1])?
A: Its value is 104%.

Q: What about the “Test/Control (%) … [uM] 3,2E+01” value (OVXF OVCAR-8; [1]) of the same compound?
A: The value was 61%.

Q: And the “Test/Control (%) … [uM] 1,0E+00” value (OVXF OVCAR-8; [2])?
A: The value was 84%.

Q: What about the “Test/Control (%) … [uM] 1,0E+01” value (OVXF OVCAR-8; [2]) of the same compound?
A: Its value is 90%.

Q: What about the “Test/Control (%) … [uM] 1,0E+02” value (OVXF OVCAR-8; [2]) of the same compound?
A: Its value is 67%.

Q: And the “Test/Control (%) … [uM] 1,0E-01” value (OVXF OVCAR-8; [2])?
A: Its value is 85%.

Q: What about the “Test/Control (%) … [uM] 1,0E-02” value (OVXF OVCAR-8; [2]) of the same compound?
A: Its value is 90%.

Q: What about the “Test/Control (%) … [uM] 3,2E+00” value (OVXF OVCAR-8; [2]) of the same compound?
A: The value was 92%.

Q: And the “Test/Control (%) … [uM] 3,2E+01” value (OVXF OVCAR-8; [2])?
A: The value was 96%.

Q: And the “Test/Control (%) … [uM] 3,2E-01” value (OVXF OVCAR-8; [2])?
A: The value was 86%.

Q: What about the “Test/Control (%) … [uM] 3,2E-02” value (OVXF OVCAR-8; [2]) of the same compound?
A: The value was 86%.

Q: And the “Test/Control (%) … [uM] 3,2E-03” value (OVXF OVCAR-8; [2])?
A: Its value is 84%.

Q: And the “Test/Control (%) … [uM] 1,0E+00” value (OVXF OVCAR-8; [3])?
A: Its value is 89%.

Q: And the “Test/Control (%) … [uM] 1,0E+01” value (OVXF OVCAR-8; [3])?
A: The value was 82%.

Q: And the “Test/Control (%) … [uM] 1,0E+02” value (OVXF OVCAR-8; [3])?
A: The value was 32%.

Q: And the “Test/Control (%) … [uM] 1,0E-01” value (OVXF OVCAR-8; [3])?
A: The value was 86%.

Q: What about the “Test/Control (%) … [uM] 1,0E-02” value (OVXF OVCAR-8; [3]) of the same compound?
A: The value was 90%.

Q: What about the “Test/Control (%) … [uM] 1,0E-03” value (OVXF OVCAR-8; [3]) of the same compound?
A: Its value is 92%.

Q: What about the “Test/Control (%) … [uM] 3,2E+00” value (OVXF OVCAR-8; [3]) of the same compound?
A: The value was 84%.

Q: What about the “Test/Control (%) … [uM] 3,2E+01” value (OVXF OVCAR-8; [3]) of the same compound?
A: The value was 74%.

Q: What about the “Percent cell growth in Oncotest screen with 10% FCS (72 hr incubation)” value (MAXF T47D; 10 μM phenoxybenzamine, T47D) of the same compound?
A: Its value is 97%.

Q: What about the IC50 (MAXF T47D; Homo sapiens, MAXF T47D Mammary, 1% FCS) of the same compound?
A: Its IC50 is 83.4 µM.

Q: What about the “Test/Control (%) … [uM] 1,0E+00” value (MAXF T47D; MAX T47D, 1% FCS, study P495C) of the same compound?
A: Its value is 98%.

Q: And the “Test/Control (%) … [uM] 1,0E+01” value (MAXF T47D; MAX T47D, 1% FCS, study P495C)?
A: The value was 96%.

Q: What about the “Test/Control (%) … [uM] 1,0E+02” value (MAXF T47D; MAX T47D, 1% FCS, study P495C) of the same compound?
A: Its value is 37%.

Q: What about the “Test/Control (%) … [uM] 3,2E+00” value (MAXF T47D; MAX T47D, 1% FCS, study P495C) of the same compound?
A: The value was 99%.

Q: What about the “Test/Control (%) … [uM] 3,2E+01” value (MAXF T47D; MAX T47D, 1% FCS, study P495C) of the same compound?
A: Its value is 92%.

Q: What about the “Test/Control (%) … [uM] 1,0E+00” value (MAXF T47D; MAX T47D, 10% FCS, study P495A) of the same compound?
A: Its value is 101%.

Q: What about the “Test/Control (%) … [uM] 1,0E+01” value (MAXF T47D; MAX T47D, 10% FCS, study P495A) of the same compound?
A: The value was 97%.

Q: And the “Test/Control (%) … [uM] 1,0E+02” value (MAXF T47D; MAX T47D, 10% FCS, study P495A)?
A: The value was 74%.

Q: What about the “Test/Control (%) … [uM] 1,0E-01” value (MAXF T47D; MAX T47D, 10% FCS, study P495A) of the same compound?
A: Its value is 97%.

Q: What about the “Test/Control (%) … [uM] 1,0E-02” value (MAXF T47D; MAX T47D, 10% FCS, study P495A) of the same compound?
A: Its value is 92%.

Q: What about the “Test/Control (%) … [uM] 3,2E+00” value (MAXF T47D; MAX T47D, 10% FCS, study P495A) of the same compound?
A: The value was 102%.

Q: And the “Test/Control (%) … [uM] 3,2E+01” value (MAXF T47D; MAX T47D, 10% FCS, study P495A)?
A: The value was 95%.

Q: And the “Test/Control (%) … [uM] 3,2E-01” value (MAXF T47D; MAX T47D, 10% FCS, study P495A)?
A: Its value is 97%.

Q: What about the “Test/Control (%) … [uM] 3,2E-02” value (MAXF T47D; MAX T47D, 10% FCS, study P495A) of the same compound?
A: The value was 92%.

Q: What about the “Test/Control (%) … [uM] 3,2E-03” value (MAXF T47D; MAX T47D, 10% FCS, study P495A) of the same compound?
A: The value was 97%.

Q: What about the “Test/Control (%) … [uM] 1,0E+00” value (MAXF T47D; MAX T47D, 10% FCS, study P495B) of the same compound?
A: Its value is 80%.

Q: What about the “Test/Control (%) … [uM] 1,0E+01” value (MAXF T47D; MAX T47D, 10% FCS, study P495B) of the same compound?
A: The value was 79%.

Q: And the “Test/Control (%) … [uM] 1,0E+02” value (MAXF T47D; MAX T47D, 10% FCS, study P495B)?
A: Its value is 57%.

Q: What about the “Test/Control (%) … [uM] 1,0E-01” value (MAXF T47D; MAX T47D, 10% FCS, study P495B) of the same compound?
A: The value was 92%.

Q: What about the “Test/Control (%) … [uM] 1,0E-02” value (MAXF T47D; MAX T47D, 10% FCS, study P495B) of the same compound?
A: Its value is 93%.

Q: And the “Test/Control (%) … [uM] 1,0E-03” value (MAXF T47D; MAX T47D, 10% FCS, study P495B)?
A: Its value is 94%.

Q: And the “Test/Control (%) … [uM] 3,2E+00” value (MAXF T47D; MAX T47D, 10% FCS, study P495B)?
A: The value was 79%.

Q: And the “Test/Control (%) … [uM] 3,2E+01” value (MAXF T47D; MAX T47D, 10% FCS, study P495B)?
A: Its value is 84%.

— paper PMC5999115, “Anti-tumor activity of phenoxybenzamine and its inhibition of histone deacetylases” (PLoS ONE, 2018)
